Test system: Na+-dependent Cl-/HCO3- exchanger (NCBE)
Assay: Inhibition of the Na+-dependent Cl-/HCO3- exchanger (NCBE) in human endothelial cells (FLIPR, BCECF pHi recovery)
Format: cell-based
Settings: inhibitor concentration of 10 μM; human endothelial cells (ECV-304); 50 μM HOE 642 present
Method: Inhibition of the Na^+ -dependent Cl^- /HCO3^- exchanger (NCBE) in human endothelial cells
Human endothelial cells (ECV-304) were detached from culture flasks with the aid of trypsin/EDTA buffer (0.05/0.02% in phosphate buffer) and, after centrifugation (100 g, 5 min), taken up in a buffered salt solution (mmol/l: 115 NaCl, 20 NH4 Cl, 5 KCl, 1 CaCl2, 1 MgSO4, 20 N-(2-hydroxyethyl)-piperazine-N'-2-ethanesulfonic acid (HEPES), 5 glucose and 1 g/l of bovine serumalbumin; pH 7.4). This cell suspension was incubated at 37° C. for 20 min with 5 μM BCECF acetoxymethyl ester. The cells were then washed and resuspended in a sodium- and bicarbonate-free buffer solution (mmol/l: 5 HEPES, 133.8 choline chloride, 4.7 KCl, 1.25 MgCl2, 0.97 K2 HPO4, 0.23 KH2 PO4, 5 glucose; pH 7.4).
The subsequent fluorescence measurement in the FLIPR (Fluorescent Imaging Plate Reader), 100 μl of this cell suspension in each case containing 20000 cells were added by pipette per well of a 96-well microtiter plate and this microtiter plate was centrifuged (100 g, 5 min).
In the FLIPR, 100 μl of buffer solution in each case were then removed from a further prepared microtiter plate and added by pipette to each of the 96 wells of the measuring plate. In this case, for a 100% control, i.e. a recovery of the intracellular pH (pHi) by means of the NCBE, a bicarbonate- and sodium-containing buffer solution (mmol/l: 5 HEPES, 93.8 NaCl, 40 NaHCO3, 4.7 KCl, 1.25 CaCl2, 1.25 MgCl2, 0.97 Na2 HPO4, 0.23 NaH2 PO4, 5 glucose; pH 7.4) which contained 50 μM HOE 642 was used. For a 0% control, i.e. no pHi recovery at all, a bicarbonate-free, sodium-containing buffer solution (mmol/l: 5 HEPES, 133.8 NaCl, 4.7 KCl, 1.25 CaCl2, 1.25 MgCl2, 0.97 Na2 HPO4, 0.23 NaH2 PO4, 5 glucose; pH 7.4) to which 50 μM HOE 642 were also added was employed. The compounds of the formula (I) according to the invention were added in various concentrations of the sodium- and bicarbonate-containing solution.
After addition of the buffer solutions to the dye-loaded acidified cells situated in the measuring plate,the increase in the fluorescence intensity which corresponded to an increase in the pHi was determined in each well of the microtiter plate. The kinetics were in this case recorded at 35° C. over a period of 2 minutes.
The increase in the fluorescence intensities for different concentrations of the compounds according to the invention was related to the two controls and from this the inhibitory action of the substances was determined.

Row | SMILES | Residual activity of the NCBE
1 | N#CNS(=O)(=O)c1ccccc1-c1ccc(C=C2CCCCC2)cc1 [Example 1, 4'-Cyclohexylidenemethylbiphenyl-2-sulfonylcyanamide] | 68.4%
2 | N#CNS(=O)(=O)c1ccccc1-c1ccc(CC2CCCCC2)cc1 [Example 2, 4'-Cyclohexylmethylbiphenyl-2-sulfonylcyanamide] | 51.6%
3 | N#CNS(=O)(=O)c1ccccc1-c1ccc(C=C2CCCC2)cc1 [Example 3, 4'-Cyclopentylidenemethylbiphenyl-2-sulfonylcyanamide] | 29.4%
4 | N#CNS(=O)(=O)c1ccccc1-c1ccc(C=C2CCCCCC2)cc1 [Example 4, 4'-Cycloheptylidenemethylbiphenyl-2-sulfonylcyanamide] | 30.5%
5 | N#CNS(=O)(=O)c1ccccc1-c1ccc(/C=C\c2ccccc2)cc1 [Example 5, cis-4'-Styrylbiphenyl-2-sulfonylcyanamide] | 21.2%
6 | N#CNS(=O)(=O)c1ccccc1-c1ccc(/C=C/c2ccccc2)cc1 [Example 6, trans-4'-Styrylbiphenyl-2-sulfonylcyanamide] | 19.3%
7 | N#CNS(=O)(=O)c1ccccc1-c1ccc(CCc2ccccc2)cc1 [Example 7, 4'-Phenethylbiphenyl-2-sulfonylcyanamide] | 64.2%
8 | N#CNS(=O)(=O)c1ccccc1-c1ccc(/C=C\C2CCCCC2)cc1 [Example 8, cis-4'-(2-Cyclohexylvinyl)biphenyl-2-sulfonylcyanamide] | 13.4%
9 | N#CNS(=O)(=O)c1ccccc1-c1ccc(/C=C/C2CCCCC2)cc1 [Example 9, trans-4'-(2-Cyclohexylvinyl)biphenyl-2-sulfonylcyanamide] | 12.8%
10 | N#CNS(=O)(=O)c1ccccc1-c1ccc(CCC2CCCCC2)cc1 [Example 10, 4'-(2-Cyclohexylethyl)biphenyl-2-sulfonylcyanamide] | 24.3%

— US5968978A, “Biphenylsulfonylcyanamides, process for their preparation, and their use as medicament” (Hoechst Marion Roussel Deutschland, priority 1997, dated 1999)
